Here are results for 23 molecules from patent US10709709B2, “Substituted carbonucleoside derivatives useful as anticancer agents” (Pfizer Inc., priority 2016, dated 2020).

Structures are written as SMILES.

Test [1] addresses PRMT5/MEP50 protein complex (Homo sapiens (Human), UniProt O14744). The test can be described thus: PRMT5 biochemical assay (3H-SAM methylation of H4(1-21) peptide, filter plate scintillation). As to conditions: 10 nM PRMT5/MEP50 complex, 200 nM H4(1-21) peptide, 1 uM SAM, 25 minute incubation at room temperature. An outline of the steps: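 Human PRMT5/MEP50 complex (10 nM) methylating H4(1-21) peptide (200 nM) with 3H/unlabelled SAM (1 uM final) in pH 8.5 Tris buffer, 25 min at room temperature. Stopped with TCA, 3H-peptide captured on filter plates and scintillation-counted. IC50 from 4-parameter fit.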

Test [2] concerns A549 lung adenocarcinoma cells. The test is described as follows: A549 proliferation assay (Cell Titer Glo). It is filed as cell-based. As to conditions: 7 days with compound, cell viability by Cell Titer Glo (ATP). On the procedure:
A549 lung adenocarcinoma cells (American Type Culture Collection) were maintained in DMEM growth media (Life Technologies) supplemented with 10% v/v heat inactivated fetal bovine serum (Sigma) and cultured at 37° C., 5% CO2. Exponentially growing A549 cells were plated in 96-well black tissue culture treated plates (Corning) at a density of […] in a volume of 100 μl culture media and allowed to adhere overnight at 37° C., 5% CO2. The following day, compound plates were prepared by making nine-point 3.3-fold dilutions in DMSO with a top concentration of 10 mM. Compounds were further diluted in culture media and 11 μl was added to the cells (final top assay concentration was 10 μM and DMSO was 0.2%). Cells were incubated with compound at 37° C., 5% CO2 for 7 days with media and compound replacement on day 4. Cell viability was assayed on Day 7 by adding 100 μl Cell Titer Glo (Promega) reagent to the plate to measure the amount of ATP present in the cells. Luminescence was read using the Envision 2104 Multilabel Reader (Perkin Elmer). The 50% inhibitory concentration (IC50) was determined using a 4-parameter fit model normalized to the DMSO control in dose response.
On the technique in general: ATP-based viability assays read luminescence as a measure of living cells.

As a reminder, the IC50 is the concentration at which inhibition is half-maximal.

PRMT5/MEP50 protein complex, sequence (O14744 other isoform, or with tags, fused parts or gaps): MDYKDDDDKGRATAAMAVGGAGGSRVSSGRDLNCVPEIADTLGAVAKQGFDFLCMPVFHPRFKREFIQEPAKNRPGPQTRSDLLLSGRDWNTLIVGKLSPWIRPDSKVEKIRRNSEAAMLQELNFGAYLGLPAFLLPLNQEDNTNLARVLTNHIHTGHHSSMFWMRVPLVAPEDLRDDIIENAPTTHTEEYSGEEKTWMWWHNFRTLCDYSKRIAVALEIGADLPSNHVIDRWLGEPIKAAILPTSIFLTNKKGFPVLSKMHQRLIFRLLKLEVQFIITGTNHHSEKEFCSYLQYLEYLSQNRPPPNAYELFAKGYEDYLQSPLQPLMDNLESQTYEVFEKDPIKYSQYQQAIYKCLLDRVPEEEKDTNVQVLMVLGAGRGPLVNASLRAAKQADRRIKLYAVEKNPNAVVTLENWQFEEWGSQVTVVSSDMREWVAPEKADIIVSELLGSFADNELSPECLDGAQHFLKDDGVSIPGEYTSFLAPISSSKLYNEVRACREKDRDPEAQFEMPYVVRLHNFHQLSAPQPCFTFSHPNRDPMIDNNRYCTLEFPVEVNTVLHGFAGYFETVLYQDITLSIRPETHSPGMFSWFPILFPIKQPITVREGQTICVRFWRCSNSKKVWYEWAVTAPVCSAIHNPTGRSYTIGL
PRMT5/MEP50 protein complex, sequence (Q9BQA1 whole entry partner): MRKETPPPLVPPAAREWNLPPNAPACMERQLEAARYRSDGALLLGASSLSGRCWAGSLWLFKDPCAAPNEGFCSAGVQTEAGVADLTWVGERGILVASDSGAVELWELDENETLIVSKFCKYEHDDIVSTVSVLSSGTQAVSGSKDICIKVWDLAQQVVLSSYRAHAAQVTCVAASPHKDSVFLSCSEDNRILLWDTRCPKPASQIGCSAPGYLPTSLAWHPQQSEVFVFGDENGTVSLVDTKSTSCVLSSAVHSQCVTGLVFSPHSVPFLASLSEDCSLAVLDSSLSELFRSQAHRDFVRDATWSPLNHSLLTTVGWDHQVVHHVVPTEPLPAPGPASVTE

Consider `Cc1ncnc2c1ccn2[C@@H]1C[C@H](Oc2cc(C(F)F)c(F)c3c2CNCC3C)[C@@H](O)[C@H]1O` (stereo partly drawn) [Example 211, (1S,2S,3S,5R)-3-((6-(difluoromethyl)-5-fluoro-4-methyl-1,2,3,4-tetrahydroisoquinolin-8-yl)oxy)-5-(4-methyl-7H-pyrrolo[2,3-d]pyrimidin-7-yl)cyclopentane-1,2-diol], for which the half-maximal inhibitory concentration (IC50) in test [1] came to 1 nM; in test [2], 14 nM.

With `Cc1ncnc2c1ccn2[C@@H]1C[C@H]([C@H](O)c2ccc(F)c(F)c2)[C@@H](O)[C@H]1O` [Example 3, (1S,2R,3R,5R)-3-[(S)-(3,4-difluorophenyl) (hydroxy)methyl]-5-(4-methyl-7H-pyrrolo[2,3-d]pyrimidin-7-yl)cyclopentane-1,2-diol], the IC50 is 32 nM in test [1] and 1100 nM in test [2] (Homo sapiens, 168 h).

For `Cc1cc2c(c(O[C@H]3C[C@@H](n4cc(Cl)c5c(N)ncnc54)[C@H](O)[C@@H]3O)c1)CNCC2` [Example 129, (1S,2S,3R,5S)-3-(4-amino-5-chloro-7H-pyrrolo[2,3-d]pyrimidin-7-yl)-5-((6-methyl-1,2,3,4-tetrahydroisoquinolin-8-yl)oxy)cyclopentane-1,2-diol], the half-maximal inhibitory concentration (IC50) in test [1] is 1 nM; in test [2] (Homo sapiens, A549, 168 h), 1040 nM.

In the case of `Cc1ncnc2c1ccn2[C@@H]1C[C@H](Oc2cc(F)c(F)cc2CN)[C@@H](O)[C@H]1O` [Example 148, (1S,2S,3S,5R)-3-(2-(aminomethyl)-4,5-difluorophenoxy)-5-(4-methyl-7H-pyrrolo[2,3-d]pyrimidin-7-yl)cyclopentane-1,2-diol], the half-maximal inhibitory concentration (IC50) stood at 2 nM in test [1] and 4880 nM in test [2] (Homo sapiens, A549, 168 h).

For `O[C@@H]1[C@H](O)[C@@H](Oc2cccc3c2CNCC3)C[C@H]1n1ccc2cncnc21` [Example 118, (1S,2S,3R,5S)-3-(7H-pyrrolo[2,3-d]pyrimidin-7-yl)-5-((1,2,3,4-tetrahydroisoquinolin-8-yl)oxy)cyclopentane-1,2-diol], the IC50 in test [1] came to 2 nM; in test [2] (Homo sapiens, A549, 168 h) it was 4840 nM.

Turning to `Cc1ncnc2c1ccn2[C@@H]1C[C@H](Oc2cccc3c2C(N)CCC3)[C@@H](O)[C@H]1O` (single isomer, unassigned) [Example 186], the concentration for half-maximal inhibition (IC50) turned out to be 12 nM in test [1] and 9530 nM in test [2] (Homo sapiens, A549, 168 h).

Take `Cc1nc(N)c2c(F)cn([C@@H]3C[C@H](Oc4ccc(F)c5c4CNCC5)[C@@H](O)[C@H]3O)c2n1` [Example 126, (1S,2S,3R,5S)-3-(4-amino-5-fluoro-2-methyl-7H-pyrrolo[2,3-d]pyrimidin-7-yl)-5-((5-fluoro-1,2,3,4-tetrahydroisoquinolin-8-yl)oxy)cyclopentane-1,2-diol]: the IC50 stood at 1 nM in test [1] and 498 nM in test [2] (Homo sapiens, A549, 168 h).

As to `CC1CNCc2c(O[C@H]3C[C@@H](n4cc(F)c5c(N)ncnc54)[C@H](O)[C@@H]3O)cc(C(F)F)c(F)c21` (stereo partly drawn) [Example 215, (1S,2S,3R,5S)-3-(4-amino-5-fluoro-7H-pyrrolo[2,3-d]pyrimidin-7-yl)-5-((6-(difluoromethyl)-5-fluoro-4-methyl-1,2,3,4-tetrahydroisoquinolin-8-yl)oxy)cyclopentane-1,2-diol], the IC50 in test [1] and in test [2] was 1 nM each time.

Turning to `Cc1cc2c(c(O[C@H]3C[C@@H](n4cc(F)c5c(C)ncnc54)[C@H](O)[C@@H]3O)c1)CNCC2` [Example 124, (1S,2S,3R,5S)-3-(5-fluoro-4-methyl-7H-pyrrolo[2,3-d]pyrimidin-7-yl)-5-((6-methyl-1,2,3,4-tetrahydroisoquinolin-8-yl)oxy)cyclopentane-1,2-diol], the IC50 in test [1] was determined as 2 nM; in test [2] (Homo sapiens, A549, 168 h) it was 3830 nM.

As to `Cc1ncnc2c1ccn2[C@@H]1C[C@H]([C@H](O)c2ccc(F)c(Cl)c2)[C@@H](O)[C@H]1O` [Example 5, (1S,2R,3R,5R)-3-[(S)-(3-chloro-4-fluorophenyl) (hydroxy)methyl]-5-(4-methyl-7H-pyrrolo[2,3-d]pyrimidin-7-yl)cyclopentane-1,2-diol], the 50% inhibitory concentration (IC50) was 25 nM in test [1] and 932 nM in test [2] (Homo sapiens, 168 h).

On to `Nc1ncnc2c1c(F)cn2[C@@H]1C[C@H](Oc2cc(F)cc3c2CNCC3)[C@@H](O)[C@H]1O` [Example 107, (1S,2S,3R,5S)-3-(4-amino-5-fluoro-7H-pyrrolo[2,3-d]pyrimidin-7-yl)-5-((6-fluoro-1,2,3,4-tetrahydroisoquinolin-8-yl)oxy)cyclopentane-1,2-diol], for which the IC50 in test [1] came out at 1 nM; in test [2] (Homo sapiens, A549, 168 h) it was 991 nM.

On to `Nc1ncnc2c1c(F)cn2[C@@H]1C[C@H](Oc2cc(F)c(F)c3c2CNCC3)[C@@H](O)[C@H]1O` [Example 103, (1S,2S,3R,5S)-3-(4-amino-5-fluoro-7H-pyrrolo[2,3-d]pyrimidin-7-yl)-5-((5,6-difluoro-1,2,3,4-tetrahydroisoquinolin-8-yl)oxy)cyclopentane-1,2-diol], for which the IC50 came to 1 nM in test [1] and 201 nM in test [2] (Homo sapiens, A549, 168 h).

Regarding `Cc1ncnc2c1ccn2[C@@H]1C[C@H](Oc2cc(Cl)cc3c2CNCC3)[C@@H](O)[C@H]1O` [Example 87, (1S,2S,3S,5R)-3-((6-chloro-1,2,3,4-tetrahydroisoquinolin-8-yl)oxy)-5-(4-methyl-7H-pyrrolo[2,3-d]pyrimidin-7-yl)cyclopentane-1,2-diol], the half-maximal inhibitory concentration (IC50) in test [1] amounted to 2 nM; in test [2] (Homo sapiens, A549, 168 h), 296 nM.

In the case of `Cc1ncnc2c1ccn2[C@@H]1C[C@H](Oc2cccc3c2CC(N)CO3)[C@@H](O)[C@H]1O` (single isomer, unassigned) [Example 188], the half-inhibitory concentration (IC50) in test [1] was 4 nM; in test [2] (Homo sapiens, A549, 168 h), 6470 nM.

Turning to `Nc1ncnc2c1c(F)cn2[C@@H]1C[C@H](Oc2cc(C(F)F)c(F)c3c2CNCC3)[C@@H](O)[C@H]1O` [Example 196, (1S,2S,3R,5S)-3-(4-amino-5-fluoro-7H-pyrrolo[2,3-d]pyrimidin-7-yl)-5-((6-(difluoromethyl)-5-fluoro-1,2,3,4-tetrahydroisoquinolin-8-yl)oxy)cyclopentane-1,2-diol], the half-inhibitory concentration (IC50) stood at 1 nM in test [1] and 3 nM in test [2] (Homo sapiens, A549, 168 h).

Turning to `Cc1cc2c(c(O[C@H]3C[C@@H](n4cc(Br)c5c(N)ncnc54)[C@H](O)[C@@H]3O)c1)CNCC2` [Example 123, (1S,2S,3R,5S)-3-(4-amino-5-bromo-7H-pyrrolo[2,3-d]pyrimidin-7-yl)-5-((6-methyl-1,2,3,4-tetrahydroisoquinolin-8-yl)oxy)cyclopentane-1,2-diol], the IC50 in test [1] was 2 nM; in test [2] (Homo sapiens, A549, 168 h) it was 452 nM.

On to `Cc1ncnc2c1ccn2[C@@H]1C[C@H](C(F)c2ccc(F)cc2)[C@@H](O)[C@H]1O` (single isomer, unassigned) [Example 22], for which the IC50 in test [1] amounted to 3 nM; in test [2] (Homo sapiens, A549, 168 h), 135 nM.

In the case of `Cc1ncnc2c1ccn2[C@@H]1C[C@H](Oc2ccc(F)c3c2C(C)NCC3)[C@@H](O)[C@H]1O` (single isomer, unassigned) [Example 214], the half-maximal inhibitory concentration (IC50) in test [1] is 8 nM; in test [2], 1080 nM.

As to `Cc1ncnc2c1ccn2[C@@H]1C[C@H](Oc2cc(-c3cn[nH]c3)c(F)c3c2CNCC3)[C@@H](O)[C@H]1O` [Example 166, (1S,2S,3S,5R)-3-((5-fluoro-6-(1H-pyrazol-4-yl)-1,2,3,4-tetrahydroisoquinolin-8-yl)oxy)-5-(4-methyl-7H-pyrrolo[2,3-d]pyrimidin-7-yl)cyclopentane-1,2-diol], the IC50 came out at 3 nM in test [1] and 39 nM in test [2] (Homo sapiens, A549, 168 h).

On to `Cc1ncnc2c1c(F)cn2[C@@H]1C[C@H](Oc2cc(Cl)cc3c2CNCC3)[C@@H](O)[C@H]1O` [Example 176, (1S,2S,3S,5R)-3-((6-chloro-1,2,3,4-tetrahydroisoquinolin-8-yl)oxy)-5-(5-fluoro-4-methyl-7H-pyrrolo[2,3-d]pyrimidin-7-yl)cyclopentane-1,2-diol], for which the IC50 in test [1] came to 2 nM; in test [2] (Homo sapiens, A549, 168 h), 1560 nM.

As to `Cc1ncc2c(F)cn([C@@H]3C[C@H](Oc4cc(Cl)cc5c4CNCC5)[C@@H](O)[C@H]3O)c2n1` [Example 175, (1S,2S,3S,5R)-3-((6-chloro-1,2,3,4-tetrahydroisoquinolin-8-yl)oxy)-5-(5-fluoro-2-methyl-7H-pyrrolo[2,3-d]pyrimidin-7-yl)cyclopentane-1,2-diol], the concentration for half-maximal inhibition (IC50) in test [1] stood at 5 nM; in test [2] (Homo sapiens, A549, 168 h) it was 3230 nM.

For `Cc1cc2c(c(O[C@H]3C[C@@H](n4cc(F)c5c(N)ncnc54)[C@H](O)[C@@H]3O)c1)CNCC2` [Example 105, (1S,2S,3R,5S)-3-(4-amino-5-fluoro-7H-pyrrolo[2,3-d]pyrimidin-7-yl)-5-((6-methyl-1,2,3,4-tetrahydroisoquinolin-8-yl)oxy)cyclopentane-1,2-diol], the 50% inhibitory concentration (IC50) in test [1] was found to be 1 nM; in test [2] (Homo sapiens, A549, 168 h) it was 383 nM.

Consider `Nc1ncnc2c1c(F)cn2[C@@H]1C[C@H](Oc2cc(Cl)c(F)c3c2CNCC3)[C@@H](O)[C@H]1O` [Example 108, (1S,2S,3R,5S)-3-(4-amino-5-fluoro-7H-pyrrolo[2,3-d]pyrimidin-7-yl)-5-((6-chloro-5-fluoro-1,2,3,4-tetrahydroisoquinolin-8-yl)oxy)cyclopentane-1,2-diol], for which the IC50 turned out to be 1 nM in test [1] and 163 nM in test [2] (Homo sapiens, A549, 168 h).
